Experimental data published in patent EP0286418A1, “Anti-retroviral agents and delivery systems for the same” (priority 1987, dated 1988).
Values joined by “and” are separate entries in the source; they are usually repeats but may differ in a detail not shown here. Equal values may be shown once. Each block holds one compound with its values, some of them ahead of it.

Experiments:
[1] = volume of encapsulation in liposomes; assay type: physicochemical; settings: freeze-thawed multilamellar EPC/PS/cholesterol liposomes; 8 mM solute
Experimental: 2ʹ,3ʹ-dideoxyguanosine 5ʹ-triphosphate (ddGTP), 2ʹ,3ʹ-dideoxyadenosine 5ʹ-triphosphate (ddATP), 2ʹ,3ʹ-dideoxythymidine 5ʹ-triphosphate (ddTTP), 2ʹ,3ʹ-dideoxycytidine 5ʹ-diphosphate (ddCDP), and 2ʹ,3ʹ-dideoxy cytidine 5ʹ-monophosphate (ddCMP) were obtained from Pharmacia (Piscataway, N.J., USA). Liposomes containing each of these agents were prepared using 56 mg EPC, 29 mg PS, 33 mg cholesterol, and 0.125 micro Ci ¹⁴C-cholesteryl oleate. Solutions for encapsulation were 8 mM nucleoside or nucleotide in phosphate-buffered saline pH 7. Liposomes were prepared essentially as described in Example 2, by drying lipid onto the walls of a glass vial, hydrating the lipid with a portion of the solution to be encapsulated, vortex-mixing, and freeze-thawing 5 times with liquid nitrogen. However, the lipid was hydrated in 0.8 ml, rather than 1.0 ml, and the extrusion step was eliminated. […] The preparation was washed by centrifugation 3 times to remove unencapsulated solute. The volume encapsulated was determined by extraction, using equal volumes of chloroform:methanol (65:25) and phosphate buffered saline. The nucleoside and nucleotide solutes partitioned largely into the aqueous phase, whereas lipid was found in the organic phase and near the interface after centrifugation. The amount of solute encapsulated was determined by standard ultraviolet spectroscopy, and the lipid was measured by counting the ¹⁴C label in scintillation fluid.

[2] = solute release from liposomes at 4°C; assay type: physicochemical; settings: from liposomes at 4°C in 2 days
Experimental: Rates of solute release were determined by adding 145 microliters of phosphate buffered saline to 25 microliters of liposomes and centrifuging in an Airfuge (Beckman) at approximately 100,000G for 10 minutes. The liposome pellets were then counted for ¹⁴C lipid, and 100 microliters of each supernatant was diluted 5-fold with phosphate buffered saline for ultraviolet spectroscopy. […] In each case, the triphosphates are released less, and the less phosphorylated forms are released to a greater extent.

monocytes = assay: superoxide generation by monocytes; assay type: cell-based, Human; settings: PMA treatment (positive control), one value per test series
Experimental: Human peripheral blood mononuclear cells were obtained by standard procedures employing continuous flow cell separation (leukapheresis), such as described in Wahl, et al., Cellular Immunol. 85:373-383 (1984). The preparation was diluted in phosphate-buffered saline and layered onto gradients of Ficoll-Paque (Pharmacia-PL Biochemicals, Piscataway, N.J., USA). After centrifugation, mononuclear cells were pipetted from the interface, washed, and suspended in DMEM-GG-FCS. They were then fractionated by countercurrent centrifugal elutriation. The procedure comprises the Beckman elutriation system including a J-21 Beckman Centrifuge, a JE-6 elutriator rotor, a stroboscope, and a Masterflex pump and pumphead. The cells were loaded into the rotor and fractionated by elution at increasing flow rates. Fractions 7 and 8, highly enriched for monocytes, were pooled for use.

adherent human monocytes = assay: uptake of dideoxynucleotides; assay type: cell-based; settings: 37°C, drug 1 uM
Experimental: Uptake of ₃H-deoxyctidine triphosphate (³H-dCTP) was used as an indicator of the uptake of vesicle contents by cells. Uptake experiments were done by plating 5 × 10⁶ monocytes in each well of a 6-well microtiter plate (Costar) and adding reagents one or two days later. Incubations were done in DMEM-GG-FCS at 37°C. The rate of increase of dCTP content in the cells over a 9-hour period (Table 7) averaged 0.29 pmole/million cells/hr with liposomes containing 4 mM EPC. Other experiments established that ddCTP and ddCMP are not readily taken up by the cells (Table 9).

in vitro = in vitro ADME; settings: dmem-gg-fcs
Experimental: When the same incubations were done in the absence of monocytes, the results were essentially identical.
Studies were conducted under conditions mimicking those of anti-viral tests. ddCMP: dideoxycytidine monophosphate. Data points represent integrals under HPLC peaks from gradient elution on a VYDAC nucleotide column.

Compound: Nc1ncnc2c1ncn2[C@H]1CC[C@@H](COP(=O)(O)OP(=O)(O)OP(=O)(O)O)O1 [ddATP, 2ʹ,3ʹ-dideoxyadenosine 5ʹ-triphosphate]
Volume of Encapsulation [1]: 1.30 microliters/micromole EPC
Percent Release [2]: 0.9%

Compound: Nc1nc2c(ncn2[C@H]2CC[C@@H](COP(=O)(O)OP(=O)(O)OP(=O)(O)O)O2)c(=O)[nH]1 [ddGTP, 2ʹ,3ʹ-dideoxyguanosine 5ʹ-triphosphate]
Volume of Encapsulation [1]: 2.74 microliters/micromole EPC
Percent Release [2]: 0.3%

Compound: CCCCCCCCCCCCCC(=O)O[C@@H]1[C@@H](C)[C@@]2(O)[C@@H](C=C(CO)C[C@]3(O)C(=O)C(C)=C[C@@H]23)[C@@H]2C(C)(C)[C@]12OC(C)=O [PMA, phorbol myristyl acetate, reference compound]
Superoxide (monocytes): 3.23 (.09) nmoles/well and 3.30 (.12) nmoles/well and 3.26 (.05) nmoles/well and 3.46 (.12) nmoles/well

Compound: Cc1cn([C@H]2CC[C@@H](COP(=O)(O)OP(=O)(O)OP(=O)(O)O)O2)c(=O)[nH]c1=O [ddTTP, 2ʹ,3ʹ-dideoxythymidine 5ʹ-triphosphate]
Volume of Encapsulation [1]: 1.61 microliters/micromole EPC
Percent Release [2]: 0.04%

Continued, values first:

Volume of Encapsulation [1]: 1.26 microliters/micromole EPC
Percent Release [2]: 6.2%
Compound: Nc1ccn([C@H]2CC[C@@H](COP(=O)(O)OP(=O)(O)O)O2)c(=O)n1 [ddCDP, 2ʹ,3ʹ-dideoxycytidine 5ʹ-diphosphate]

Volume of Encapsulation [1]: 1.29 microliters/micromole EPC
Percent Release [2]: 45.1%
Compound: Cc1cn([C@H]2CC[C@@H](CO)O2)c(=O)[nH]c1=O [ddT, dideoxythymidine, reference compound]

pmole drug/1 million cells (mean) (adherent human monocytes; 0. h): 0.07 pmole drug/1 million cells
pmole drug/1 million cells (mean) (adherent human monocytes; 0.33 h): 0.18 pmole drug/1 million cells
pmole drug/1 million cells (mean) (adherent human monocytes; 1.00 h): 0.22 pmole drug/1 million cells
pmole drug/1 million cells (mean) (adherent human monocytes; 3.00 h): 0.08 pmole drug/1 million cells
pmole drug/1 million cells (mean) (adherent human monocytes; 6.00 h): 0.20 pmole drug/1 million cells
metabolised at 72 h (in vitro): 93%
Volume of Encapsulation [1]: 0.76 microliters/micromole EPC
Percent Release [2]: 6.9%
Compound: Nc1ccn([C@H]2CC[C@@H](COP(=O)(O)O)O2)c(=O)n1 [ddCMP, 2ʹ,3ʹ-dideoxycytidine 5ʹ-monophosphate]

pmole drug/1 million cells (mean) (adherent human monocytes; 0. h): 0.05 pmole drug/1 million cells
pmole drug/1 million cells (mean) (adherent human monocytes; 0.33 h): 0.01 pmole drug/1 million cells
pmole drug/1 million cells (mean) (adherent human monocytes; 1.00 h): 0.19 pmole drug/1 million cells
pmole drug/1 million cells (mean) (adherent human monocytes; 3.00 h): 0.43 pmole drug/1 million cells
pmole drug/1 million cells (mean) (adherent human monocytes; 6.00 h): 1.30 pmole drug/1 million cells
pmole drug/1 million cells (mean) (adherent human monocytes; 9.00 h): 1.90 pmole drug/1 million cells
pmole drug/1 million cells (mean) (adherent human monocytes; 20.00 h): 0.81 pmole drug/1 million cells
Compound: Nc1ccn([C@H]2CC[C@@H](CO)O2)c(=O)n1 [ddC, dideoxycytidine, reference compound]
